Results taken from the supplement of paper PMC10307832.

Columns and labels:
Assay in all cases: relative viability (nuclei count vs DMSO), 5 days (fraction); higher = more cells survive
COR-L23 = test system: COR-L23
Procedure, shortened: (§1)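 Relative viability equals treated-well nuclei counts divided by vehicle-well nuclei counts. Counts came from 4× images of lung cancer cell lines grown in 1536-well plates for 5 days after pin-tool dosing on the day after seeding. Dosing used one drug alone or a fixed anchor-drug dose plus five library-drug doses (not always all listed) in √10 steps, and values are medians of duplicate plates.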

NCI-H2023 = test system: NCI-H2023
Procedure, shortened: as §1

NCI-H1993 = test system: NCI-H1993
Procedure, shortened: as §1

NCI-H1734 = test system: NCI-H1734
Procedure, shortened: as §1

PC-14 = test system: PC-14
Procedure, shortened: as §1

RERF-LC-KJ = test system: RERF-LC-KJ
Procedure, shortened: as §1

ABC-1 = test system: ABC-1
Procedure, shortened: as §1

NCI-H2085 = test system: NCI-H2085
Procedure, shortened: as §1

NCI-H520 = test system: NCI-H520
Procedure, shortened: as §1

NCI-H3122 = test system: NCI-H3122
Procedure, shortened: as §1

EPLC-272H = test system: EPLC-272H
Procedure, shortened: as §1

201T = test system: 201T
Procedure, shortened: as §1

NCI-H441 = test system: NCI-H441
Procedure, shortened: as §1

EKVX = test system: EKVX
Procedure, shortened: as §1

NCI-H1650 = test system: NCI-H1650
Procedure, shortened: as §1

NCI-H2405 = test system: NCI-H2405
Procedure, shortened: as §1

NCI-H2347 = test system: NCI-H2347
Procedure, shortened: as §1

NCI-H1563 = test system: NCI-H1563
Procedure, shortened: as §1

NCI-H647 = test system: NCI-H647
Procedure, shortened: as §1

LOU-NH91 = test system: LOU-NH91
Procedure, shortened: as §1

HCC-44 = test system: HCC-44
Procedure, shortened: as §1

## Clc1ccc(Nc2nnc(Cc3ccncc3)c3ccccc23)cc1 [Vatalanib] + CC(C)C[C@H](NC(=O)[C@H](Cc1ccccc1)NC(=O)c1cnccn1)B(O)O [Bortezomib] (partner 0.002 µM)
COR-L23; first compound 0.04 µM
  relative viability: 1.1
COR-L23; first compound 0.1265 µM
  relative viability: 0.934
COR-L23; first compound 0.4 µM
  relative viability: 1.01
COR-L23; first compound 1.265 µM
  relative viability: 1.01
COR-L23; first compound 4 µM
  relative viability: 0.942
NCI-H2023; first compound 0.04 µM
  relative viability: 1.02
NCI-H2023; first compound 0.1265 µM
  relative viability: 0.837
NCI-H2023; first compound 0.4 µM
  relative viability: 1.02
NCI-H2023; first compound 1.265 µM
  relative viability: 0.946
NCI-H2023; first compound 4 µM
  relative viability: 0.695
NCI-H1993; first compound 0.04 µM
  relative viability: 1.11
NCI-H1993; first compound 0.1265 µM
  relative viability: 1.05
NCI-H1993; first compound 0.4 µM
  relative viability: 1.02
NCI-H1993; first compound 1.265 µM
  relative viability: 1.01
NCI-H1993; first compound 4 µM
  relative viability: 0.869
NCI-H1734; first compound 0.04 µM
  relative viability: 1.02
NCI-H1734; first compound 0.1265 µM
  relative viability: 1.04
NCI-H1734; first compound 0.4 µM
  relative viability: 1.15
NCI-H1734; first compound 1.265 µM
  relative viability: 0.827
NCI-H1734; first compound 4 µM
  relative viability: 0.893
PC-14; first compound 0.04 µM
  relative viability: 1.02
PC-14; first compound 0.1265 µM
  relative viability: 0.849
PC-14; first compound 0.4 µM
  relative viability: 0.969
PC-14; first compound 1.265 µM
  relative viability: 0.852
PC-14; first compound 4 µM
  relative viability: 0.828
RERF-LC-KJ; first compound 0.04 µM
  relative viability: 1.05
RERF-LC-KJ; first compound 0.1265 µM
  relative viability: 1.1
RERF-LC-KJ; first compound 0.4 µM
  relative viability: 0.958
RERF-LC-KJ; first compound 1.265 µM
  relative viability: 0.904
RERF-LC-KJ; first compound 4 µM
  relative viability: 0.969
ABC-1; first compound 0.04 µM
  relative viability: 0.334
ABC-1; first compound 0.1265 µM
  relative viability: 0.243
ABC-1; first compound 0.4 µM
  relative viability: 0.348
ABC-1; first compound 1.265 µM
  relative viability: 0.357
ABC-1; first compound 4 µM
  relative viability: 0.351
NCI-H2085; first compound 0.04 µM
  relative viability: 1.07
NCI-H2085; first compound 0.1265 µM
  relative viability: 0.952
NCI-H2085; first compound 0.4 µM
  relative viability: 1.08
NCI-H2085; first compound 1.265 µM
  relative viability: 0.995
NCI-H2085; first compound 4 µM
  relative viability: 0.947
NCI-H520; first compound 0.04 µM
  relative viability: 0.841
NCI-H520; first compound 0.1265 µM
  relative viability: 0.573
NCI-H520; first compound 0.4 µM
  relative viability: 0.677
NCI-H520; first compound 1.265 µM
  relative viability: 0.547
NCI-H520; first compound 4 µM
  relative viability: 0.702
NCI-H3122; first compound 0.04 µM
  relative viability: 1.01
NCI-H3122; first compound 0.1265 µM
  relative viability: 1.06
NCI-H3122; first compound 0.4 µM
  relative viability: 1.08
NCI-H3122; first compound 1.265 µM
  relative viability: 1.07
NCI-H3122; first compound 4 µM
  relative viability: 1.01
EPLC-272H; first compound 0.04 µM
  relative viability: 1.08
EPLC-272H; first compound 0.1265 µM
  relative viability: 0.93
EPLC-272H; first compound 0.4 µM
  relative viability: 0.843
EPLC-272H; first compound 1.265 µM
  relative viability: 0.971
EPLC-272H; first compound 4 µM
  relative viability: 0.982
201T; first compound 0.04 µM
  relative viability: 1.08
201T; first compound 0.1265 µM
  relative viability: 1.11
201T; first compound 0.4 µM
  relative viability: 1.11
201T; first compound 1.265 µM
  relative viability: 1.08
201T; first compound 4 µM
  relative viability: 1.13
NCI-H441; first compound 0.04 µM
  relative viability: 0.421
NCI-H441; first compound 0.1265 µM
  relative viability: 0.444
NCI-H441; first compound 0.4 µM
  relative viability: 0.52
NCI-H441; first compound 1.265 µM
  relative viability: 0.448
NCI-H441; first compound 4 µM
  relative viability: 0.448
EKVX; first compound 0.04 µM
  relative viability: 1.1
EKVX; first compound 0.1265 µM
  relative viability: 0.647
EKVX; first compound 0.4 µM
  relative viability: 1.22
EKVX; first compound 1.265 µM
  relative viability: 0.984
EKVX; first compound 4 µM
  relative viability: 0.848
NCI-H1650; first compound 0.04 µM
  relative viability: 0.196
NCI-H1650; first compound 0.1265 µM
  relative viability: 0.217
NCI-H1650; first compound 0.4 µM
  relative viability: 0.206
NCI-H1650; first compound 1.265 µM
  relative viability: 0.174
NCI-H1650; first compound 4 µM
  relative viability: 0.195
NCI-H2405; first compound 0.04 µM
  relative viability: 1
NCI-H2405; first compound 0.1265 µM
  relative viability: 1.03
NCI-H2405; first compound 0.4 µM
  relative viability: 0.76
NCI-H2405; first compound 1.265 µM
  relative viability: 0.957
NCI-H2405; first compound 4 µM
  relative viability: 0.939
NCI-H2347; first compound 0.1265 µM
  relative viability: 0.898
NCI-H2347; first compound 0.4 µM
  relative viability: 0.855
NCI-H2347; first compound 1.265 µM
  relative viability: 0.973
NCI-H2347; first compound 4 µM
  relative viability: 0.865
NCI-H1563; first compound 0.04 µM
  relative viability: 0.868
NCI-H1563; first compound 0.1265 µM
  relative viability: 0.855
NCI-H1563; first compound 0.4 µM
  relative viability: 1.09
NCI-H1563; first compound 1.265 µM
  relative viability: 0.814
NCI-H1563; first compound 4 µM
  relative viability: 0.732
NCI-H647; first compound 0.04 µM
  relative viability: 1.05
NCI-H647; first compound 0.1265 µM
  relative viability: 0.971
NCI-H647; first compound 0.4 µM
  relative viability: 1.07
NCI-H647; first compound 1.265 µM
  relative viability: 0.943
NCI-H647; first compound 4 µM
  relative viability: 1.06
LOU-NH91; first compound 0.04 µM
  relative viability: 0.491
LOU-NH91; first compound 0.1265 µM
  relative viability: 0.43
LOU-NH91; first compound 0.4 µM
  relative viability: 0.464
LOU-NH91; first compound 1.265 µM
  relative viability: 0.493
LOU-NH91; first compound 4 µM
  relative viability: 0.468
HCC-44; first compound 0.04 µM
  relative viability: 0.92
HCC-44; first compound 0.1265 µM
  relative viability: 0.855
HCC-44; first compound 0.4 µM
  relative viability: 0.903
HCC-44; first compound 1.265 µM
  relative viability: 0.828
HCC-44; first compound 4 µM
  relative viability: 0.857
